Data as given in PubChem BioAssay (NCI).
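1) Cells in 96-well plates. 2) Compound, 48 h, 5 concentrations. 3) Linear interpolation between surrounding doses. 4) Unreached endpoint = highest concentration. GI50 marks 50% less growth. TGI marks complete inhibition of growth.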

Columns and labels:
Assay in all cases: NCI-60 cell line screen, 48 h
[1] = test system: 786-0 renal
[2] = test system: A498 renal
[3] = test system: A549 NSCLC
[4] = test system: ACHN renal
[5] = test system: BT-549 breast
[6] = test system: CAKI-1 renal
[7] = test system: CCRF-CEM leukemia
[8] = test system: COLO 205 colon
[9] = test system: DU-145 prostate
[10] = test system: EKVX NSCLC
[11] = test system: HCC-2998 colon
[12] = test system: HCT-116 colon
[13] = test system: HCT-15 colon
[14] = test system: HL-60(TB) leukemia
[15] = test system: HOP-62 NSCLC
[16] = test system: HOP-92 NSCLC
[17] = test system: HS 578T breast
[18] = test system: HT29 colon
[19] = test system: IGROV1 ovarian
[20] = test system: K-562 leukemia
[21] = test system: KM12 colon
[22] = test system: LOX IMVI melanoma
[23] = test system: M14 melanoma
[24] = test system: MALME-3M melanoma
[25] = test system: MCF7 breast
[26] = test system: MDA-MB-231 breast
[27] = test system: MDA-MB-435
[28] = test system: MDA-MB-468 breast
[29] = test system: MOLT-4 leukemia
[30] = test system: NCI-H226 lung
[31] = test system: NCI-H23 lung
[32] = test system: NCI-H460 lung
[33] = test system: NCI-H522 lung
[34] = test system: NCI/ADR-RES ovarian
[35] = test system: OVCAR-3 ovarian
[36] = test system: OVCAR-4 ovarian
[37] = test system: OVCAR-5 ovarian
[38] = test system: OVCAR-8 ovarian
[39] = test system: PC-3 prostate
[40] = test system: RPMI-8226 leukemia
[41] = test system: RXF 393 renal
[42] = test system: SF-268 CNS
[43] = test system: SF-295 CNS
[44] = test system: SF-539 CNS
[45] = test system: SK-MEL-2 melanoma
[46] = test system: SK-MEL-28 melanoma
[47] = test system: SK-MEL-5 melanoma
[48] = test system: SK-OV-3 ovarian
[49] = test system: SN12C renal
[50] = test system: SNB-19 CNS
[51] = test system: SR leukemia
[52] = test system: SW-620 colon
[53] = test system: T-47D breast
[54] = test system: TK-10 renal
[55] = test system: U251 CNS
[56] = test system: UACC-257 melanoma
[57] = test system: UACC-62 melanoma
[58] = test system: UO-31 renal

Q: With COc1ccc(C(=O)/C=C/c2cccc3ccccc23)cc1S(N)(=O)=O as the compound, how does the GI50 [1] read?
A: 1.86 µM

Q: And the TGI [1]?
A: 3.87 µM

Q: And the GI50 [2]?
A: 13.2 µM

Q: What about the TGI [2] of the same compound?
A: 26.2 µM

Q: What about the GI50 [3] of the same compound?
A: 2.66 µM

Q: What about the TGI [3] of the same compound?
A: 9.65 µM

Q: And the GI50 [4]?
A: 1.89 µM

Q: What about the TGI [4] of the same compound?
A: 3.92 µM

Q: What about the GI50 [5] of the same compound?
A: 1.77 µM

Q: What about the TGI [5] of the same compound?
A: 3.63 µM

Q: And the GI50 [6]?
A: 2.42 µM

Q: What about the TGI [6] of the same compound?
A: 10.6 µM

Q: What about the GI50 [7] of the same compound?
A: 2.54 µM

Q: What about the TGI [7] of the same compound?
A: 6.95 µM

Q: What about the GI50 [8] of the same compound?
A: 1.67 µM

Q: And the TGI [8]?
A: 3.24 µM

Q: What about the GI50 [9] of the same compound?
A: 2.85 µM

Q: And the TGI [9]?
A: 10.8 µM

Q: And the GI50 [10]?
A: 3.55 µM

Q: What about the TGI [10] of the same compound?
A: 13.5 µM

Q: And the GI50 [11]?
A: 1.75 µM

Q: What about the TGI [11] of the same compound?
A: 3.24 µM

Q: And the GI50 [12]?
A: 1.33 µM

Q: And the TGI [12]?
A: 2.93 µM

Q: And the GI50 [13]?
A: 1.23 µM

Q: What about the TGI [13] of the same compound?
A: 3.2 µM

Q: What about the GI50 [14] of the same compound?
A: 1.36 µM

Q: And the TGI [14]?
A: 5.81 µM

Q: What about the GI50 [15] of the same compound?
A: 2.03 µM

Q: What about the TGI [15] of the same compound?
A: 5.66 µM

Q: What about the GI50 [16] of the same compound?
A: 2.14 µM

Q: What about the TGI [16] of the same compound?
A: 9.53 µM

Q: What about the GI50 [17] of the same compound?
A: 5.21 µM

Q: And the TGI [17]?
A: 26.8 µM

Q: What about the GI50 [18] of the same compound?
A: 1.74 µM

Q: And the TGI [18]?
A: 3.92 µM

Q: What about the GI50 [19] of the same compound?
A: 2.3 µM

Q: And the TGI [19]?
A: 7.12 µM

Q: What about the GI50 [20] of the same compound?
A: 1.69 µM

Q: And the TGI [20]?
A: 7.54 µM

Q: And the GI50 [21]?
A: 1.46 µM

Q: What about the TGI [21] of the same compound?
A: 3.57 µM

Q: And the GI50 [22]?
A: 1.35 µM

Q: What about the TGI [22] of the same compound?
A: 2.63 µM

Q: And the GI50 [23]?
A: 2.03 µM

Q: And the TGI [23]?
A: 5.68 µM

Q: What about the GI50 [24] of the same compound?
A: 1.83 µM

Q: And the TGI [24]?
A: 4.2 µM

Q: What about the GI50 [25] of the same compound?
A: 2.14 µM

Q: And the TGI [25]?
A: 8.58 µM

Q: What about the GI50 [26] of the same compound?
A: 2.38 µM

Q: What about the TGI [26] of the same compound?
A: 6.49 µM

Q: What about the GI50 [27] of the same compound?
A: 2.23 µM

Q: And the TGI [27]?
A: 7.5 µM

Q: What about the GI50 [28] of the same compound?
A: 1.53 µM

Q: And the TGI [28]?
A: 3.11 µM

Q: What about the GI50 [29] of the same compound?
A: 2.3 µM

Q: What about the TGI [29] of the same compound?
A: 6.39 µM

Q: What about the GI50 [30] of the same compound?
A: 3.1 µM

Q: What about the TGI [30] of the same compound?
A: 13.2 µM

Q: What about the GI50 [31] of the same compound?
A: 2.21 µM

Q: What about the TGI [31] of the same compound?
A: 5.64 µM

Q: And the GI50 [32]?
A: 1.79 µM

Q: And the TGI [32]?
A: 4.16 µM

Q: What about the GI50 [33] of the same compound?
A: 1.61 µM

Q: What about the TGI [33] of the same compound?
A: 3.2 µM

Q: And the GI50 [34]?
A: 2.2 µM

Q: What about the TGI [34] of the same compound?
A: 6.4 µM

Q: And the GI50 [35]?
A: 1.8 µM

Q: And the TGI [35]?
A: 4.38 µM

Q: What about the GI50 [36] of the same compound?
A: 2.87 µM

Q: What about the TGI [36] of the same compound?
A: 11.3 µM

Q: What about the GI50 [37] of the same compound?
A: 1.84 µM

Q: And the TGI [37]?
A: 4.4 µM

Q: And the GI50 [38]?
A: 2.39 µM

Q: What about the TGI [38] of the same compound?
A: 10.1 µM

Q: What about the GI50 [39] of the same compound?
A: 2.31 µM

Q: What about the TGI [39] of the same compound?
A: 6.64 µM

Q: What about the GI50 [40] of the same compound?
A: 1.59 µM

Q: What about the TGI [40] of the same compound?
A: 5.34 µM

Q: What about the GI50 [41] of the same compound?
A: 1.57 µM

Q: And the TGI [41]?
A: 3.24 µM

Q: And the GI50 [42]?
A: 3.04 µM

Q: What about the TGI [42] of the same compound?
A: 11.1 µM

Q: What about the GI50 [43] of the same compound?
A: 2.38 µM

Q: And the TGI [43]?
A: 7.74 µM

Q: And the GI50 [44]?
A: 1.64 µM

Q: And the TGI [44]?
A: 3.06 µM

Q: What about the GI50 [45] of the same compound?
A: 4.99 µM

Q: And the TGI [45]?
A: 17.8 µM

Q: And the GI50 [46]?
A: 1.85 µM

Q: What about the TGI [46] of the same compound?
A: 3.64 µM

Q: And the GI50 [47]?
A: 2.53 µM

Q: What about the TGI [47] of the same compound?
A: 7.71 µM

Q: What about the GI50 [48] of the same compound?
A: 3.72 µM

Q: And the TGI [48]?
A: 15.4 µM

Q: What about the GI50 [49] of the same compound?
A: 1.6 µM

Q: What about the TGI [49] of the same compound?
A: 3.91 µM

Q: What about the GI50 [50] of the same compound?
A: 3.45 µM

Q: What about the TGI [50] of the same compound?
A: 13.7 µM

Q: And the GI50 [51]?
A: 0.749 µM

Q: What about the TGI [51] of the same compound?
A: 5.13 µM

Q: And the GI50 [52]?
A: 1.62 µM

Q: And the TGI [52]?
A: 3.46 µM

Q: What about the GI50 [53] of the same compound?
A: 3.41 µM

Q: What about the TGI [53] of the same compound?
A: 14.1 µM

Q: What about the GI50 [54] of the same compound?
A: 2.89 µM

Q: And the TGI [54]?
A: 10.2 µM

Q: And the GI50 [55]?
A: 1.5 µM

Q: What about the TGI [55] of the same compound?
A: 3.02 µM

Q: What about the GI50 [56] of the same compound?
A: 3.05 µM

Q: And the TGI [56]?
A: 12.3 µM

Q: And the GI50 [57]?
A: 1.53 µM

Q: And the TGI [57]?
A: 3 µM

Q: What about the GI50 [58] of the same compound?
A: 1.48 µM

Q: And the TGI [58]?
A: 3.19 µM
